Assay results: patent US12441726B2, “Compounds and uses thereof” (Foghorn Therapeutics Inc., priority 2020, dated 2025)

Key:
BRM = BRM (Homo sapiens, UniProt P51531); experiment: ATPase catalytic activity assay (ADP-Glo), BRM; settings: 30 nM BRM, 400 μM ATP; for IC50: BRM ATPase: IC50 (uM)
BRG-1 = BRG-1 (Homo sapiens, UniProt P51532); experiment: ATPase catalytic activity assay (ADP-Glo), BRG-1; settings: for Emax: 1 h, read-out: BRG1 Max % Inhibition, ADP-Glo, 30 nM BRG-1, 400 μM ATP
Sequence of BRG-1 (P51532 whole entry): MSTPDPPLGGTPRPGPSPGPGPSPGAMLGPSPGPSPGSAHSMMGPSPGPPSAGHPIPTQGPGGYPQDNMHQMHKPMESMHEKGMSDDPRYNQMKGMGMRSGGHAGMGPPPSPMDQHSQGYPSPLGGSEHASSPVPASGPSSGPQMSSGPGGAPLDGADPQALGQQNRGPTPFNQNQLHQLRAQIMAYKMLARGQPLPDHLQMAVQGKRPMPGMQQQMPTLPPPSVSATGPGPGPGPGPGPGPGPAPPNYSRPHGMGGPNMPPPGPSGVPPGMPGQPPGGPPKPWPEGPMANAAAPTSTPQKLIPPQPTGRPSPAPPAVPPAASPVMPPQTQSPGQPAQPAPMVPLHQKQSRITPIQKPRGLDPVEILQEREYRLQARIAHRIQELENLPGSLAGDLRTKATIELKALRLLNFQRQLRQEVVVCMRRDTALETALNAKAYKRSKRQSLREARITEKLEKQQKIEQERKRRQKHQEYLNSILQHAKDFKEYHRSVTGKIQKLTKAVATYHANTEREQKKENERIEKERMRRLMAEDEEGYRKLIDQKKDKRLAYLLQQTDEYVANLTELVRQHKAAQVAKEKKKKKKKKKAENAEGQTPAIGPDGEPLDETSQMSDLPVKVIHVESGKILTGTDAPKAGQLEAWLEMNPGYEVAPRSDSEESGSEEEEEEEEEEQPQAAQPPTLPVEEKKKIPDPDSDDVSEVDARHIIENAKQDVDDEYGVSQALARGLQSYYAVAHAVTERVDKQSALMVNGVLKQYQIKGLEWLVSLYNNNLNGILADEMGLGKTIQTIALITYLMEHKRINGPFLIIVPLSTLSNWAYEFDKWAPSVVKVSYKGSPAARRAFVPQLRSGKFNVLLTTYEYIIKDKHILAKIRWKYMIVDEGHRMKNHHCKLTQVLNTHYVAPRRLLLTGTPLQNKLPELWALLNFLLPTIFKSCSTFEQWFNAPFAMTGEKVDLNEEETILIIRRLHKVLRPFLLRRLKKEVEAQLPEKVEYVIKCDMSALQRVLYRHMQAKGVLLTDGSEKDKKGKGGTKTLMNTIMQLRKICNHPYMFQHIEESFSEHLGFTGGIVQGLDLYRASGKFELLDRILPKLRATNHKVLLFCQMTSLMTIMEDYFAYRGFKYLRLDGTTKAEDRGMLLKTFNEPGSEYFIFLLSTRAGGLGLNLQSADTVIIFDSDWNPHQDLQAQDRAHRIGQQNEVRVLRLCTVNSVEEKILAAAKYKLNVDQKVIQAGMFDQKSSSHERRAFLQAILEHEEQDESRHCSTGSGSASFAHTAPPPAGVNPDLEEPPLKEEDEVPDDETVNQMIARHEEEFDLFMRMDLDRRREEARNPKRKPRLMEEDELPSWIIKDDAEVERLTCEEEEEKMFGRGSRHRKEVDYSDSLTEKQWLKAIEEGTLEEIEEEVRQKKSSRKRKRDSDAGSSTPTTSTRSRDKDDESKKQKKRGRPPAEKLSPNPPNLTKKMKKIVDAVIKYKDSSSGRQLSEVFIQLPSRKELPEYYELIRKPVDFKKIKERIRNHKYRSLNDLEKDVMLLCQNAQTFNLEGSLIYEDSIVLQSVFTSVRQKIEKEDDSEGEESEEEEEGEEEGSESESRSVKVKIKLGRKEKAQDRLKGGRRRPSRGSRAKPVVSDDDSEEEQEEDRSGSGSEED

Sequence of BRM (P51531 whole entry): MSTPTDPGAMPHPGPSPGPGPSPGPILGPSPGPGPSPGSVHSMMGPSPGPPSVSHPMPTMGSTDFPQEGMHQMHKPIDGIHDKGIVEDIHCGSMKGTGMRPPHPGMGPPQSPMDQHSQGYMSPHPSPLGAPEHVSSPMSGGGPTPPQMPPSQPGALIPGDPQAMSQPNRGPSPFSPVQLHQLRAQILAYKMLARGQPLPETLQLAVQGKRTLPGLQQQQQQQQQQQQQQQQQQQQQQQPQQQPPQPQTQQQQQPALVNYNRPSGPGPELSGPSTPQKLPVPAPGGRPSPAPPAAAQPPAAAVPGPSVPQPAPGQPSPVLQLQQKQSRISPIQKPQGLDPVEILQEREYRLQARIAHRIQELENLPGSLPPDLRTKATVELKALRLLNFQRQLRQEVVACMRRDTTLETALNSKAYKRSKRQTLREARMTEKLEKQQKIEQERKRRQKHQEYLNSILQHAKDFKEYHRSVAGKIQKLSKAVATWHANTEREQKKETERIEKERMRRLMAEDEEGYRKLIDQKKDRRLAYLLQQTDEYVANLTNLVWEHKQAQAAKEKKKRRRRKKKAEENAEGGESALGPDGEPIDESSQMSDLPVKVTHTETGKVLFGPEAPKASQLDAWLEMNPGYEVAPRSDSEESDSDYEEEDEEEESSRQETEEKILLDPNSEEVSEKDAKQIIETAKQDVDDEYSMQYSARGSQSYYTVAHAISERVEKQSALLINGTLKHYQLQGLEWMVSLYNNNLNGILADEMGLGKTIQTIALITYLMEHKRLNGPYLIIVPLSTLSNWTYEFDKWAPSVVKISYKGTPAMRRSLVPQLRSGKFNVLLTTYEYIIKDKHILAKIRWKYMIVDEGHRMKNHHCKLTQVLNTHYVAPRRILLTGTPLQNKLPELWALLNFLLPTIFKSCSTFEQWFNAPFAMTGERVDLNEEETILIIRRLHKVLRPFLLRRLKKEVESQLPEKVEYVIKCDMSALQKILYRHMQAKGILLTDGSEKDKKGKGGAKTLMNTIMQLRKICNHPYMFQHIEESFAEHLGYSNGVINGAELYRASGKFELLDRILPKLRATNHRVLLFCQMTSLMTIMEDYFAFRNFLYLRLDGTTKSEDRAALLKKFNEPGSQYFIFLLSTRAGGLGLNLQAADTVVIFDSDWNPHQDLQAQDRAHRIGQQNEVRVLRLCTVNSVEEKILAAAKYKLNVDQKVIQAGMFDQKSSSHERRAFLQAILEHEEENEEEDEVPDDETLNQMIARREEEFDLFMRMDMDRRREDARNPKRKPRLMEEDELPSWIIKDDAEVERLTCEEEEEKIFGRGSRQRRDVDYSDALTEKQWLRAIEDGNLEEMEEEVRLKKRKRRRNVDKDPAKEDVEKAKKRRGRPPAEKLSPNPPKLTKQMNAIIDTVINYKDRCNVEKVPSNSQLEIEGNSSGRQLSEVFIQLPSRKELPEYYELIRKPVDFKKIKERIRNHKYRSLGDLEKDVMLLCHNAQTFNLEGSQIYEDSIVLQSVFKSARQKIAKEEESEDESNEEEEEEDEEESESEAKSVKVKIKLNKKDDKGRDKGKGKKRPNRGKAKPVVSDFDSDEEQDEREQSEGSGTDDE

| SMILES | BRM Max % Inhibition (BRM) | IC50 (BRM) | IC50 (BRG-1) | Emax (BRG-1) |
| --- | --- | --- | --- | --- |
| C[C@@]1(C#N)COCc2ccc(C(=O)NCc3cc(N4CCc5ccccc5C4)cnn3)cc21 [Compound 75] | 97% | 0.1 to 0.5 µM | 500 to 1000 nM | 54% |
| CNC(=O)c1cccc(-c2ccc3cnc(CNC(=O)c4ccc5c(c4)[C@](C)(C#N)COC5)cc3n2)n1 [Compound 466] | 99% | < 0.1 µM | 500 to 1000 nM | 79% |
| CN1CCN(c2cccc(-c3ccc4cnc(CNC(=O)c5ccc6c(c5)[C@](C)(C#N)COC6)cc4n3)n2)CC1 [Compound 465] | 99% | < 0.1 µM | 100 to 500 nM | 89% |
| C[C@@]1(C#N)CCNc2ccc(C(=O)NCc3cc4nc(-c5ccccc5)ccc4cn3)cc21 [Compound 116] | 76% | > 1 µM | > 1000 nM | 22% |
| C[C@@]1(C#N)COCc2ccc(C(=O)NCc3cc([C@H]4C[C@H](c5ccccc5)C4)ccn3)cc21 [Compound 18] | 93% | < 0.1 µM | > 1000 nM | 87% |
| C[C@@]1(F)COCc2c(F)cc(C(=O)NCc3cc4nc(-c5ccccc5)ccc4cn3)cc21 [Compound 428] | 97% | 0.1 to 0.5 µM | 500 to 1000 nM | 65% |
| C[C@@]1(C#N)COCc2ccc(C(=O)NCc3nccc(C#Cc4ccccc4)c3F)cc21 [Compound 16] | 94% | 0.1 to 0.5 µM | > 1000 nM | 51% |
| C[C@@]1(F)COCc2ncc(C(=O)NCc3cc4nc(-c5ccccc5)ccc4cn3)cc21 [Compound 413] | 92% | 0.1 to 0.5 µM | 500 to 1000 nM | 51% |
| Cn1cc(-c2nc3cc(CNC(=O)c4ccc5c(c4)[C@](C)(C#N)COC5)ncc3s2)cn1 [Compound 289] | 90% | 0.1 to 0.5 µM | > 1000 nM | 41% |
| C[C@@]1(F)COCc2ccc(C(=O)NCc3cc4cc(-c5cccc(N6CCC6)n5)cnc4cn3)cc21 [Compound 347] | 100% | < 0.1 µM | 100 to 500 nM | 79% |
| C[C@@]1(C#N)COCc2ccc(C(=O)NCc3cc4nc(-c5ccnc(N6CC[C@@H](F)C6)n5)ccc4cn3)cc21 [Compound 306] | 99% | < 0.1 µM | 100 to 500 nM | 94% |
| C[C@@]1(F)COCc2ccc(C(=O)NCc3cc4nc(-c5cccc(C6(O)CC(F)(F)C6)n5)ccc4cn3)cc21 [Compound 169] | 98% | < 0.1 µM | 100 to 500 nM | 91% |
| C[C@@]1(C#N)COCc2ccc(C(=O)NCc3cc4nc(-c5cnn(-c6cccnc6)c5)ccc4cn3)cc21 [Compound 499] | 85% | 0.1 to 0.5 µM | > 1000 nM | 29% |
| C[C@@]1(F)COCc2ccc(C(=O)NCc3cc4nc(-c5cccc(N=S(C)(C)=O)n5)ccc4cn3)cc21 [Compound 273] | 98% | 0.1 to 0.5 µM | 500 to 1000 nM | 64% |
| C[C@@]1(CO)CCc2ccc(C(=O)NCc3cc4nc(-c5ccccc5)ccc4cn3)cc21 [Compound 90] | 82% | > 1 µM | > 1000 nM | 24% |
| C[C@@]1(F)COCc2ccc(C(=O)NCc3cc4nc(-c5ccccc5)ccc4nn3)cc21 [Compound 277] | 96% | 0.1 to 0.5 µM | 500 to 1000 nM | 69% |
| C[C@@]1(C#N)COCc2ccc(C(=O)NCc3cc(N4CCC(c5ccccc5)C4)ccn3)cc21 (stereo partly shown) [Compound 44] | 97% | 0.1 to 0.5 µM | > 1000 nM | 69% |
| CN(C)C(=O)c1cccc(-c2ccc3cnc(CNC(=O)c4ccc5c(c4)[C@](C)(C#N)COC5)cc3n2)n1 [Compound 464] | 88% | 0.1 to 0.5 µM | > 1000 nM | 48% |
| C[C@@]1(C#N)COCc2ccc(C(=O)NCc3cc(C#Cc4cccc(C(F)F)c4)ccn3)cc21 [Compound 17] | 94% | 0.1 to 0.5 µM | > 1000 nM | 58% |
| Cc1cc(-c2ccc3cnc(CNC(=O)c4ccc5c(c4)[C@](C)(C#N)COC5)cc3n2)n(C)n1 [Compound 501] | 85% | 0.1 to 0.5 µM | > 1000 nM | 47% |
| C[C@@]1(C#N)COCc2ccc(C(=O)NCc3cc(N4CC(c5ccccc5)C4)cnn3)cc21 [Compound 46] | 78% | > 1 µM | > 1000 nM | 29% |
| COc1nn(C2COC2)cc1-c1ccc2cnc(CNC(=O)c3ccc4c(c3)[C@](C)(C#N)COC4)cc2n1 [Compound 236] | 100% | < 0.1 µM | 100 to 500 nM | 90% |
| C[C@@]1(C#N)COCc2ccc(C(=O)NCc3cc4nc(-c5cnc(N6CCC6)cn5)ccc4cn3)cc21 [Compound 414] | 91% | 0.1 to 0.5 µM | 500 to 1000 nM | 67% |
| C[C@@]1(F)COCc2ncc(C(=O)NCc3cc4nc(-c5cccc(N6CCC6)n5)cnc4cn3)cc21 [Compound 216] | 98% | < 0.1 µM | 100 to 500 nM | 90% |
| Cn1ccc2ccc(-c3ccc4cnc(CNC(=O)c5ccc6c(c5)[C@](C)(C#N)COC6)cc4n3)cc2c1=O [Compound 452] | 97% | < 0.1 µM | 100 to 500 nM | 98% |
| CN1Cc2cc(-c3ccc4cnc(CNC(=O)c5ccc6c(c5)[C@](C)(C#N)COC6)cc4n3)ccc2C1=O [Compound 495] | 99% | < 0.1 µM | 100 to 500 nM | 88% |
| C[C@@]1(C#N)COCc2ccc(C(=O)NCc3nccc(N4Cc5ccccc5C4)c3F)cc21 [Compound 68] | 98% | < 0.1 µM | 100 to 500 nM | 91% |
| C[C@@]1(C#N)COCc2ccc(C(=O)NCc3cc4nc(-c5ccnc(N6CCC6)c5F)ccc4cn3)cc21 [Compound 412] | 99% | < 0.1 µM | 100 to 500 nM | 98% |
| C[C@@]1(C#N)COCc2ccc(C(=O)NCc3cc4nc(-c5ccnc(C6(F)CC6)n5)ccc4cn3)cc21 [Compound 204] | 97% | < 0.1 µM | 500 to 1000 nM | 82% |

Now from value to compound:

| BRM Max % Inhibition (BRM) | IC50 (BRM) | IC50 (BRG-1) | Emax (BRG-1) | SMILES |
| --- | --- | --- | --- | --- |
| 98% | < 0.1 µM | 100 to 500 nM | 95% | CC(C)n1ccc2c(-c3ccc4cnc(CNC(=O)c5ccc6c(c5)[C@](C)(C#N)COC6)cc4n3)cccc21 [Compound 174] |
| 88% | 0.1 to 0.5 µM | > 1000 nM | 23% | O=C(NCc1cc2nc(-c3cncc(C4CC4)n3)ccc2cn1)c1cnc2c(c1)C(O)(C(F)F)COC2 (stereo not shown) [Compound 246] |
| 100% | < 0.1 µM | 100 to 500 nM | 86% | C[C@@]1(C#N)COCc2ccc(C(=O)NCc3cc4cc(-c5ccnc(N6CCC6)c5F)cnc4cn3)cc21 [Compound 294] |
| 100% | 0.1 to 0.5 µM | > 1000 nM | 96% | CN1CCC(NC(=O)c2cccc(-c3ccc4cnc(CNC(=O)c5ccc6c(c5)[C@](C)(C#N)COC6)cc4n3)c2)CC1 [Compound 317] |
| 87% | 0.1 to 0.5 µM | > 1000 nM | 33% | C[C@]1(F)CCCc2ncc(C(=O)NCc3cc4nc(-c5cncc(C6CC6)n5)ccc4cn3)cc21 [Compound 252] |
| 97% | < 0.1 µM | 500 to 1000 nM | 80% | C[C@@]1(C#N)COCc2ccc(C(=O)NCc3cc4cc(-c5cncc(C6CC6)n5)cnc4cn3)cc21 [Compound 342] |
| 64% | > 1 µM | > 1000 nM | 12% | COC(=O)N1CCCC(C#Cc2ccnc(CNC(=O)c3ccc4c(c3)[C@](C)(C#N)COC4)c2)C1 (stereo partly shown) [Compound 5] |
| 98% | < 0.1 µM | 100 to 500 nM | 89% | COc1cncc(-c2ccc3cnc(CNC(=O)c4ccc5c(c4)[C@](C)(C#N)COC5)cc3n2)n1 [Compound 423] |
| 100% | < 0.1 µM | 100 to 500 nM | 85% | C[C@@]1(C#N)COCc2ccc(C(=O)NCc3cc4nc(-c5cnc6cccnn56)ccc4cn3)cc21 [Compound 436] |
| 99% | < 0.1 µM | < 100 nM | 99% | CO[C@@H]1CCN(c2cncc(-c3ccc4cnc(CNC(=O)c5ccc6c(c5)[C@](C)(C#N)COC6)cc4c3)n2)C1 [Compound 366] |
| 83% | 0.1 to 0.5 µM | > 1000 nM | 42% | CNC(=O)c1ccc(-c2ccc3cnc(CNC(=O)c4ccc5c(c4)[C@](C)(F)COC5)cc3n2)cn1 [Compound 260] |
| 103% | < 0.1 µM | < 100 nM | 98% | Cn1c(C2CC2)cc2c(-c3ccc4cnc(CNC(=O)c5ccc6c(c5)[C@](C)(C#N)COC6)cc4n3)cccc21 [Compound 135] |
| 104% | < 0.1 µM | 100 to 500 nM | 95% | C[C@@]1(F)COCc2ccc(C(=O)NCc3cc4nc(-c5cccc(C6(O)CC6)n5)ccc4cn3)cc21 [Compound 271] |
| 101% | < 0.1 µM | < 100 nM | 100% | C[C@@]1(C#N)COCc2ccc(C(=O)NCc3cc4nc(-c5cccc(C6(O)CC6)n5)ccc4cn3)cc21 [Compound 384] |
